Here are results for 5 compounds from patent publication US20150273010A1 (priority 2012, published 2015).

Holding throughout (type): cell-based
Series [1] deals with T1, HIV-1 PR (Human immunodeficiency virus type 1 group M subtype B, UniProt P04585). The note with it: 10 μM; Gal4/PR SupT1 clones, 1 μg/mL Dox.
Series [2] relates to SupT1 cells. The series is described as follows: Toxicity of PI to cells during the Gal4/library/PR screen. As to conditions: 100.M Indinavir, with PR as part of a fusion, time frame required for the screen. An excerpt: The screen starts with the addition of Dox. In alternative embodiments, cells can be non-fluorescent and not contain a Gal4/library fusion protein at all, or they can express a fusion protein cleaved by HIV-1 PR or cellular proteases. Cells expressing a non-cleaved fusion can be fluorescent (FIG. 10A panel a) as they will be able to activate the E2-Crimson reporter. This population is not of interest in this screen. In alternative embodiments, the non-fluorescent population is sorted and expanded (FIG. 10A panel b). In alternative embodiments, cells are then treated again with Dox, but this time in the presence of PI (100.M Indinavir). We have shown that Indinavir at this concentration, and PR as part of a fusion, are not toxic at least for the time frame required for the screen. Only the subpopulation of cells that express a substrate specific for PR should turn fluorescent and thus be E2-Crimson positive (FIG. 10A panel c). In alternative embodiments, this population is sorted and amplified (FIG. 10A panel d) and used to obtain individual clonal populations by growing individual cells in a 96-well format.

The test system of series [3] is self-inactivating pseudo-typed HIV-1 (sinHIV-GFP). The series is described as follows: sinHIV-GFP infection screen of SupT1 cells expressing nuclear random peptide library (FACS). The note with it: clones isolated after 12 rounds of infection/selection; compared to the mCherry control. Here is the method: A retroviral random peptide library localized to the nucleus, 3XF(GGS)3 NLS RPL, was used to search for novel inhibitors of HIV-1. In order to screen a population of SupT1 expressing this library, a self-inactivating pseudo-typed HIV-1 carrying a pCMV-GFP expression cassette was utilized. The 3XF(GGS)3 NLS RPL SupT1 cells and cells expressing pBMN.i.mCherry were then screened by infection with sinHIV-GFP. 72 hours post-infection, the cells were sorted by Fluorescence Activated Cell Sorting (FACS) based on the expression of GFP, retaining and expanding GFP-negative cells in culture. […] Following 12 rounds of infection, selection of non-fluorescent cells and amplification of the 3XF(GGS)3 NLS RPL expressing SupT1 cells, eight clones were isolated, and expanded in culture.

The target in series [4] is T1, HIV-1 PR. As to conditions: 293T cells, PR/RT cleavage site, added as PI.
The target of series [5] is T1, HIV-1 PR. An excerpt:
For that purpose, the well-characterized PR/RT and RT/IN HIV-1 boundaries were introduced between the Gal4 domains.

The target of series [6] is T1, HIV-1 PR. The note with it: HEK 293T co-transfected with p55 and PR, 48 hours post-transfection, PI present.
Procedure: Transfected cells were analyzed 48 hours post-transfection with anti-p24 antibody. […] Quantification of the Western blots by IMAGEJ™ (ImageJ™) software. Band intensities are plotted as a ratio of p24 to p55.
We performed a biochemical assay to assess PR activity based on its ability to cleave one of its natural substrates—the p55 Gag poly-protein. For this purpose, p96ZM651gag-opt (from the NIH AIDS reagent program) with humanized codons for optimal expression, was used as substrate. Cells were co-transfected with p55 and PR in the presence or absence of Ritonavir as PI. Cells were then analyzed by western blot 48 hours post-transfection with antibodies against HIV p24, capsid (NIH AIDS reagent program).

Consider `CC(C)(C)NC(=O)[C@@H]1CN(Cc2cccnc2)CCN1C[C@@H](O)C[C@@H](Cc1ccccc1)C(=O)N[C@H]1c2ccccc2C[C@H]1O` [Indinavir], for which the “PR inhibition read as GFP induction” value in series [1] was “inhibited PR, allowing robust GFP induction”. The toxicity entry in series [2] is listed as “not toxic”. “Trp Arg Gly Ala Ala Met Val Arg Gly (WRGAAMVRG) [Clone 6]”: the “decrease in sinHIV-GFP infection rate” value in series [3] is given as “largest decrease”. Regarding `CC(C)CN(C[C@@H](O)[C@H](Cc1ccccc1)NC(=O)O[C@H]1CO[C@H]2OCC[C@H]21)S(=O)(=O)c1ccc(N)cc1` [Darunavir, darunavir], the “reversal of PR-dependent reduction in green fluorescence” value in series [4] is on record as “the trend was reversed”. For the same compound, the “inhibition of PR-dependent decrease in E2-C fluorescence” value in series [5] is listed as “strongly inhibited”.

For the compound `CC(C)c1nc(CN(C)C(=O)N[C@H](C(=O)N[C@@H](Cc2ccccc2)C[C@H](O)[C@H](Cc2ccccc2)NC(=O)OCc2cncs2)C(C)C)cs1` [Ritonavir], the “p55 Gag poly-protein processing by PR” value in series [6] was “poly-protein processing is hindered”.

As to “Thr Arg Arg Val Ala His Asn Ser Glu (TRRVAHNSE) [Clone 2]”, the “decrease in sinHIV-GFP infection rate” value in series [3] was “largest decrease”.
